# Measurements taken from EP4273147A1, “SUBSTITUTED SPIROLACTAMS, SALTS THEREOF AND THEIR USE AS HERBICIDALLY ACTIVE SUBSTANCES” (Bayer Aktiengesellschaft, priority 2022, dated 2023).
# Legend:
# [1] = system: ABUTH; assay: Herbicidal pre-emergence action (Table A1); assay type: in vivo, Abutilon theophrasti; conditions: application rate 1280 g/ha; visual grading after ca. 3 weeks vs untreated controls (100% = plants have died off, 0% = as control plants)
# Summary of the method: (§1)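 For this pre-emergence setup, sandy loam pots received seeds of one monocot and one dicot weed species each. The seeds were then covered with soil.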
# [2] = system: ECHCG; assay: Herbicidal pre-emergence action (Table A2); assay type: in vivo, Echinochloa crus-galli; conditions: application rate 320 g/ha; visual grading after ca. 3 weeks
# Summary of the method: as §1
# [3] = system: LOLRI; assay: Herbicidal pre-emergence action (Table A3); assay type: in vivo, Lolium rigidum; conditions: application rate 320 g/ha; visual grading after ca. 3 weeks
# Summary of the method: as §1
# [4] = system: MATIN; assay: Herbicidal pre-emergence action (Table A4); assay type: in vivo, Matricaria inodora; conditions: application rate 1280 g/ha; visual grading after ca. 3 weeks
# Summary of the method: as §1
# [5] = system: SETVI; assay: Herbicidal pre-emergence action (Table A5); assay type: in vivo, Setaria viridis; conditions: application rate 1280 g/ha; visual grading after ca. 3 weeks
# Summary of the method: as §1
# [6] = system: STEME; assay: Herbicidal pre-emergence action (Table A6); assay type: in vivo, Stellaria media; conditions: application rate 320 g/ha; visual grading after ca. 3 weeks
# Summary of the method: as §1
# [7] = system: POAAN; assay: Herbicidal pre-emergence action (Table A7); assay type: in vivo, Poa annua; conditions: application rate 320 g/ha; visual grading after ca. 3 weeks
# Summary of the method: as §1
# [8] = system: ALOMY; assay: Herbicidal pre-emergence action (Table A9); assay type: in vivo, Alopecurus myosuroides; conditions: application rate 1280 g/ha; visual grading after ca. 3 weeks
# Summary of the method: as §1
# [9] = system: KCHSC; assay: Herbicidal pre-emergence action (Table A10); assay type: in vivo, Kochia scoparia; conditions: application rate 320 g/ha; visual grading after ca. 3 weeks
# Summary of the method: as §1
# [10] = system: VERPE; assay: Herbicidal pre-emergence action (Table A11); assay type: in vivo, Veronica persica; conditions: application rate 1280 g/ha; visual grading after ca. 3 weeks
# Summary of the method: as §1
# [11] = system: DIGSA; assay: Herbicidal pre-emergence action (Table A12); assay type: in vivo, Digitaria sanguinalis; conditions: application rate 320 g/ha; visual grading after ca. 3 weeks
# Summary of the method: as §1
# [12] = system: ABUTH; assay: Herbicidal post-emergence action (Table B1); assay type: in vivo, Abutilon theophrasti; conditions: application rate 1280 g/ha; treated at one-leaf stage; rated visually after about 3 weeks vs untreated controls (100% = plants have died, 0% = like control plants)
# Summary of the method: (§2)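 Visual rating against untreated plants (0% = as control, 100% = dead) made roughly 3 weeks after application. Weed species were grown in sandy loam pots under greenhouse conditions and sprayed at the one-leaf stage, 2–3 weeks post-sowing.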
# [13] = system: ECHCG; assay: Herbicidal post-emergence action (Table B3); assay type: in vivo, Echinochloa crus-galli; conditions: application rate 1280 g/ha; rated visually after about 3 weeks
# Summary of the method: as §2
# [14] = system: LOLRI; assay: Herbicidal post-emergence action (Table B5); assay type: in vivo, Lolium rigidum; conditions: application rate 1280 g/ha; rated visually after about 3 weeks
# Summary of the method: as §2
# [15] = system: MATIN; assay: Herbicidal post-emergence action (Table B6); assay type: in vivo, Matricaria inodora; conditions: application rate 1280 g/ha; rated visually after about 3 weeks
# Summary of the method: as §2
# [16] = system: SETVI; assay: Herbicidal post-emergence action (Table B8); assay type: in vivo, Setaria viridis; conditions: application rate 1280 g/ha
# Summary of the method: as §2
# [17] = system: ALOMY; assay: Herbicidal pre-emergence action, section C (Table C2); assay type: in vivo, Alopecurus myosuroides; conditions: application rate 320 g/ha; visual grading after ca. 3 weeks
# [18] = system: DIGSA; assay: Herbicidal pre-emergence action, section C (Table C5); assay type: in vivo, Digitaria sanguinalis; conditions: application rate 80 g/ha; visual grading after ca. 3 weeks
# [19] = system: LOLRI; assay: Herbicidal pre-emergence action, section C (Table C7); assay type: in vivo, Lolium rigidum; conditions: application rate 320 g/ha; visual grading after ca. 3 weeks
# [20] = system: MATIN; assay: Herbicidal pre-emergence action, section C (Table C8); assay type: in vivo, Matricaria inodora; conditions: application rate 320 g/ha; visual grading after ca. 3 weeks
# Text: Seeds of mono- and dicotyledonous weed plants and crop plants were sown, in plastic or organic planting pots, in sandy loam and covered with soil. The compounds according to the invention, formulated in the form of wettable powders (WP) or as emulsifiable concentrates (EC), were applied to the surface of the covering soil as aqueous suspension or emulsion, with the addition of 0.5% of an additive, at an application rate of 600 1 of water/ha (converted). Following treatment, the pots were placed in a greenhouse and kept under optimum growth conditions for the test plants.
# [21] = system: SETVI; assay: Herbicidal pre-emergence action, section C (Table C10); assay type: in vivo, Setaria viridis; conditions: application rate 320 g/ha; visual grading after ca. 3 weeks
# [22] = system: VERPE; assay: Herbicidal pre-emergence action, section C (Table C11); assay type: in vivo, Veronica persica; conditions: application rate 80 g/ha; visual grading after ca. 3 weeks
# [23] = system: VIOTR; assay: Herbicidal pre-emergence action, section C (Table C12); assay type: in vivo, Viola tricolor; conditions: application rate 80 g/ha; visual grading after ca. 3 weeks
# [24] = system: ZEAMX; assay: Pre-emergence effects on crop plants (Table D1); assay type: in vivo, Zea mays; conditions: crop plant; application rate 80 g/ha; visual grading after ca. 3 weeks
# [25] = system: TRZAS; assay: Pre-emergence effects on crop plants (Table D2); assay type: in vivo, Triticum aestivum; conditions: crop plant; application rate 80 g/ha; visual grading after ca. 3 weeks
# [26] = system: GLXMA; assay: Pre-emergence effects on crop plants (Table D4); assay type: in vivo, Glycine max; conditions: crop plant; application rate 320 g/ha; visual grading after ca. 3 weeks
# [27] = system: ABUTH; assay: Herbicidal post-emergence action, section E (Table E1); assay type: in vivo, Abutilon theophrasti; conditions: application rate 320 g/ha; assessed visually after ca. 3 weeks
# Text: (§3) 2 to 3 weeks after sowing, the test plants were sprayed in the single-leaf stage.
# [28] = system: VERPE; assay: Herbicidal post-emergence action, section E (Table E9); assay type: in vivo, Veronica persica; conditions: application rate 320 g/ha; assessed visually after ca. 3 weeks
# Text: as §3
# [29] = system: VIOTR; assay: Herbicidal post-emergence action, section E (Table E10); assay type: in vivo, Viola tricolor; conditions: application rate 320 g/ha; assessed visually after ca. 3 weeks
# Text: as §3
# [30] = system: ZEAMX; assay: Post-emergence effects on crop plants (Table F1); assay type: in vivo, Zea mays; conditions: application rate 320 g/ha, crop plant ZEAMX
# Text: as §3
# [31] = system: TRZAS; assay: Post-emergence effects on crop plants (Table F2); assay type: in vivo, Triticum aestivum; conditions: application rate 320 g/ha, crop plant TRZAS
# Text: as §3
# [32] = system: ORYZA; assay: Post-emergence effects on crop plants (Table F3); assay type: in vivo, Oryza sativa; conditions: application rate 320 g/ha, crop plant ORYZA
# Text: as §3
# [33] = system: GLXMA; assay: Post-emergence effects on crop plants (Table F4); assay type: in vivo, Glycine max; conditions: application rate 320 g/ha, crop plant GLXMA
# Text: as §3
# [34] = system: ORYZA; assay: Pre-emergence effects on crop plants (Table D3); conditions: crop plant; application rate 80 g/ha; visual grading after ca. 3 weeks
structure (smiles),measurement,setting,value
O=C1N(Cc2c(F)cccc2F)CCCC12CCN(Cc1c(F)cccc1F)C2=O (racemic) [I-037],pre-emergence activity against ABUTH,[1],100%
same,pre-emergence activity against ECHCG,[2],100%
same,pre-emergence activity against LOLRI,[3],100%
same,pre-emergence activity against MATIN,[4],90%
same,pre-emergence activity against SETVI,[5],100%
same,pre-emergence activity against STEME,[6],90%
same,pre-emergence activity against POAAN,[7],100%
same,pre-emergence activity against ALOMY,[8],90%
same,pre-emergence activity against KCHSC,[9],90%
same,pre-emergence activity against VERPE,[10],90%
same,pre-emergence activity against DIGSA,[11],100%
same,post-emergence activity against ABUTH,[12],90%
same,post-emergence activity against ECHCG,[13],90%
same,post-emergence activity against LOLRI,[14],90%
same,post-emergence activity against MATIN,[15],90%
same,post-emergence activity against SETVI,[16],90%
same,pre-emergence activity against ALOMY,[17],100%
same,pre-emergence activity against DIGSA,[18],100%
same,pre-emergence activity against LOLRI,[19],100%
same,pre-emergence activity against MATIN,[20],80%
same,pre-emergence activity against SETVI,[21],100%
same,pre-emergence activity against VERPE,[22],90%
same,pre-emergence activity against VIOTR,[23],90%
same,pre-emergence activity against ZEAMX,[24],0%
same,pre-emergence activity against TRZAS,[25],0%
same,pre-emergence activity against GLXMA,[26],20%
same,post-emergence activity against ABUTH,[27],80%
same,post-emergence activity against VERPE,[28],80%
same,post-emergence activity against VIOTR,[29],80%
same,post-emergence activity against ZEAMX,[30],0%
same,post-emergence activity against TRZAS,[31],0%
same,post-emergence activity against ORYZA,[32],0%
same,post-emergence activity against GLXMA,[33],0%
same,pre-emergence activity against ORYZA,[34],0%
